Like-named read-outs stand apart in the source and are kept apart here. Where no end group is shown, it is not given here.
Experiments:
[1] = system: advanced cancer patients; experiment: Interpretation of case reports: protection from heart muscle wasting, NSVT and early death; format: in vivo, human
[2] = system: advanced cancer patients; experiment: Hand grip strength, 4 meter walk and 6-minute walk test in advanced cancer patients receiving heart failure drugs, case series; format: in vivo, human
Method: (§1) In some cases, SGLT2 inhibitors, Dapagliflozin or Empagliflozin can be used for treatment of type 2 diabetes, heart failure, or a combination thereof. Disclosed herein are methods comprising administering these drugs to advanced cancer patients to improve a heart muscle in these patients. We here describe 5 advanced cancer patients, who were treated with either an SGLT2 inhibitor, an ACE inhibitor, a beta-blocker or an Angiotensin receptor blocker, all of which are shown to be effective heart failure therapies.

[3] = system: advanced cancer patients; experiment: Self-rated health / EQ5D5L index in advanced cancer patients receiving heart failure drugs, case series; format: in vivo, human; settings: for Self-rated health: 1=very good, 5=very poor; for Symptom status, EQ5D5L Index: 1 best possible, 0 worst possible
Method: as §1

[4] = system: advanced cancer patients; experiment: Survival follow-up of advanced cancer patients receiving heart failure drugs, case series; format: in vivo, human
[5] = system: advanced cancer patients; experiment: Echocardiogram (LVEF, LV mass) in advanced cancer patients receiving heart failure drugs, case series; format: in vivo, human
Method: as §1

[6] = system: advanced cancer patients; experiment: 24 h ECG recording (mean heart rate, SDNN, NSVT) in advanced cancer patients receiving heart failure drugs, case series; format: in vivo, human
Method: as §1

[7] = system: patients with advanced cancer; settings: cited from earlier work
[8] = Case 8: Pancreas Cancer UICC stage 4, Nebivolol 7.5 mg with co-medication
[9] = Case 9: Lung Cancer UICC stage 4, Candesartan 32 mg and Metoprolol 95 mg with co-medication
[10] = Case 7: lymphoma Ann Arbor Stage 2A, Empagliflozin 10 mg with co-medication
[11] = Case 6: Colorectal Cancer UICC stage 4, Candesartan 16 mg and Dapagliflozin 10 mg with co-medication
[12] = Case A: pancreatic cancer metastasized to liver, Gemcitabine, pre-study vs post-study
[13] = Case B: gastrointestinal cancer metastasized to liver, Capecitabine
[14] = Case C: advanced mesothelioma, FOLFIRI
[15] = Case D: head & neck cancer metastasized to lungs, Cetuximab, pre-study vs post-study
[16] = Case 10: Lymphoma Ann Arbor stage 4 E, Ramipril 2.5 mg with co-medication
[17] = Case 11: Lymphoma Ann Arbor stage 4 E, Ramipril 10 mg with co-medication
[18] = Case 13: Lung cancer UICC stage 4B, Spironolactone 25 mg and Candesartan 32 mg with co-medication
[19] = Case 14: Breast Cancer UICC stage 4, Spironolactone 25 mg with co-medication
[20] = Case 12: Multiple Myeloma stage 3, Spironolactone 25 mg, Candesartan 32 mg and Candesartan 8 mg listed, with co-medication

## OC(CNCC(O)C1CCc2cc(F)ccc2O1)C1CCc2cc(F)ccc2O1 (stereo not shown) [Nebivolol]
[1]; [8]
  Interpretation of the case: protected from heart muscle wasting, life-threatening non-sustained ventricular tachycardia and early death
[2]; [8]
  Hand grip muscle strength: 27 kg
  Time to walk 4 meters: 4.6 s
[3]; [8]
  Self-rated health: 3
[4]; [8]
  Survival (still alive after): > 337 days
[5]; [8]
  LV mass (echocardiogram): 236 gram
  LVEF (echocardiogram): 65%
[6]; [8]
  Heart rate variability SDNN (24 h ECG): 124 ms
  Mean heart rate (24 h ECG): 62 beats per minute
  Non-sustained ventricular tachycardia (24 h ECG): no non-sustained ventricular tachycardia

## COCCc1ccc(OCC(O)CNC(C)C)cc1 (stereo not shown) [Metoprolol]
[1]; [9]
  Interpretation of the case: protected from heart muscle wasting, life-threatening non-sustained ventricular tachycardia and early death
[2]; [9]
  Distance walked in 6 minutes: 440 meters
  Hand grip muscle strength: 43 kg
[3]; [9]
  Self-rated health: 2
[5]; [9]
  LV mass (echocardiogram): 326 gram
  LVEF (echocardiogram): 67%
[6]; [9]
  Non-sustained ventricular tachycardia (24 h ECG): no non-sustained ventricular tachycardia

## OC[C@H]1O[C@@H](c2ccc(Cl)c(Cc3ccc(O[C@H]4CCOC4)cc3)c2)[C@H](O)[C@@H](O)[C@@H]1O [Empagliflozin]
[1]; [10]
  Interpretation of the case: protected from heart muscle wasting, life-threatening non-sustained ventricular tachycardia and early death
[2]; [10]
  Hand grip strength: 46
  Time to walk 4 meters: 3.5 s
[3]; [10]
  Self-rated health: 2
[4]; [10]
  Survival (still alive after): > 324 days
[5]; [10]
  LV mass (echocardiogram): 365 gram
  LVEF (echocardiogram): 64%
[6]; [10]
  Heart rate variability SDNN (24 h ECG): 224 ms
  Mean heart rate (24 h ECG): 84 beats per minute
  Non-sustained ventricular tachycardia (24 h ECG): no non-sustained ventricular tachycardia

## CCOc1ccc(Cc2cc([C@@H]3O[C@H](CO)[C@@H](O)[C@H](O)[C@H]3O)ccc2Cl)cc1 [Dapagliflozin]
[2]; [11]
  Distance in 6-minute walk test: 504 meters
  Hand grip strength: 46 kg
[3]; [11]
  Self-rated health: 4
[5]; [11]
  LV mass (echocardiogram): 247 gram
  LVEF (echocardiogram): 68%
[6]; [11]
  Heart rate variability SDNN (24 h ECG): 160 ms
  Mean heart rate (24 h ECG): 70 beats per minute

## Ghrelin (GSSFLSPEHQRVQQRKESKKPPAKLQPR; ends and bridges not checked; UniProt Q9UBU3 24-51, looked up) [a gut-derived 28-amino acid peptide hormone]
[7]; [12]
  Change in muscle mass: no change
  Increase in muscle strength: 2%
  Increase in steps/day: 40%
[7]; [13]
  Adverse event: hospitalized for atrial fibrillation, which was an AE deemed unrelated to ghrelin
  Patient comment about using ghrelin: Feel more active
[7]; [14]
  Adverse event: increase in tumor pain, an AE deemed unrelated to ghrelin
  Patient opinion about using ghrelin: This is the first therapy which improves my well-being
  Survival: 62 days
[7]; Case C: advanced mesothelioma, FOLFIRI, pre-study vs post-study
  Decrease in muscle mass: 3%
[7]; [15]
  Change in muscle mass: no change
  Increase in muscle strength: 6%
  Increase in steps/day: 63%

## CCOC(=O)[C@H](CCc1ccccc1)N[C@@H](C)C(=O)N1[C@H](C(=O)O)C[C@@H]2CCC[C@@H]21 [Ramipril]
[1]; [16]
  Interpretation of the case: protected from heart muscle wasting, life-threatening non-sustained ventricular tachycardia and early death
[1]; [17]
  Interpretation of the case: protected from heart muscle wasting, life-threatening non-sustained ventricular tachycardia and early death
[2]; [16]
  Distance walked in 6 minutes: 440 meters
  Hand grip muscle strength: 29 kg
  Time to walk 4 meters: 3.5 s
[2]; [17]
  Hand grip muscle strength: 47 kg
[3]; [16]
  Self-rated health: 3
[3]; [17]
  Symptom status, EQ5D5L Index: 0.999
[4]; [16]
  Survival (still alive after): > 458 days
[4]; [17]
  Survival (still alive after): > 666 days
[5]; [16]
  LV mass (echocardiogram): 189 gram
  LVEF (echocardiogram): 63%
[5]; [17]
  LV mass (echocardiogram): 227 gram
  LVEF (echocardiogram): 67%
[6]; [16]
  Heart rate variability SDNN (24 h ECG): 95 ms
  Mean heart rate (24 h ECG): 64 beats per minute
  Non-sustained ventricular tachycardia (24 h ECG): no non-sustained ventricular tachycardia
[6]; [17]
  Heart rate variability SDNN (24 h ECG): 120 ms
  Mean heart rate (24 h ECG): 77 beats per minute
  Non-sustained ventricular tachycardia (24 h ECG): no non-sustained ventricular tachycardia

## CC(=O)S[C@@H]1CC2=CC(=O)CC[C@]2(C)[C@H]2CC[C@@]3(C)[C@@H](CC[C@@]34CCC(=O)O4)[C@H]12 [Spironolactone]
[1]; [18]
  Interpretation of the case: protected from heart muscle wasting, life-threatening non-sustained ventricular tachycardia and early death
[1]; [19]
  Interpretation of the case: protected from heart muscle wasting, life-threatening non-sustained ventricular tachycardia and early death
[2]; [20]
  Distance walked in 6 minutes: 527 meters
  Hand grip muscle strength: 47 kg
  Time to walk 4 meters: 2.5 s
[2]; [18]
  Hand grip muscle strength: 40 kg
[2]; [19]
  Hand grip muscle strength: 40 kg
[3]; [20]
  Symptom status, EQ5D5L Index: 0.887
[4]; [19]
  Survival (still alive after): > 235 days
[5]; [18]
  LV mass (echocardiogram): 148 gram
  LVEF (echocardiogram): 66%
[5]; [19]
  LV mass (echocardiogram): 233 gram
  LVEF (echocardiogram): 67%
[6]; [20]
  Heart rate variability SDNN (24 h ECG): 112 ms
  Mean heart rate (24 h ECG): 69 beats per minute
  Non-sustained ventricular tachycardia (24 h ECG): no non-sustained ventricular tachycardia
[6]; [18]
  Heart rate variability SDNN (24 h ECG): 101 ms
  Non-sustained ventricular tachycardia (24 h ECG): no non-sustained ventricular tachycardia
[6]; [19]
  Average heart rate (24 h ECG): 85 bpm
  Heart rate variability SDNN (24 h ECG): 142 ms
  Non-sustained ventricular tachycardia (24 h ECG): no non-sustained ventricular tachycardia

## CCOc1nc2cccc(C(=O)O)c2n1Cc1ccc(-c2ccccc2-c2nnn[nH]2)cc1 [Candesartan]
[2]; [11]
  Distance in 6-minute walk test: 504 meters
  Hand grip strength: 46 kg
[2]; [9]
  Distance walked in 6 minutes: 440 meters
  Hand grip muscle strength: 43 kg
[2]; [20]
  Distance walked in 6 minutes: 527 meters
  Hand grip muscle strength: 47 kg
  Time to walk 4 meters: 2.5 s
[2]; [18]
  Hand grip muscle strength: 40 kg
[3]; [11]
  Self-rated health: 4
[3]; [9]
  Self-rated health: 2
[3]; [20]
  Symptom status, EQ5D5L Index: 0.887
[5]; [11]
  LV mass (echocardiogram): 247 gram
  LVEF (echocardiogram): 68%
[5]; [9]
  LV mass (echocardiogram): 326 gram
  LVEF (echocardiogram): 67%
[5]; [18]
  LV mass (echocardiogram): 148 gram
  LVEF (echocardiogram): 66%
[6]; [11]
  Heart rate variability SDNN (24 h ECG): 160 ms
  Mean heart rate (24 h ECG): 70 beats per minute
[6]; [20]
  Heart rate variability SDNN (24 h ECG): 112 ms
  Mean heart rate (24 h ECG): 69 beats per minute
[6]; [18]
  Heart rate variability SDNN (24 h ECG): 101 ms
